From US20050256093A1, “Branched polyamine steroid derivatives” (Leo Pharma, priority 2002, published 2005)
≈ marks a conversion by molar mass, not a printed value.

Legend:
Assay in all cases: agar cup assay MIC
Type in all cases: cell-based
[1] = test system: S. aureus CJ200; conditions: Staphylococcus aureus
From the text: (§1) In vitro investigations have shown a significant potency of the compounds of the invention against a large number of bacteria including gram-positive and gram-negative strains (Staphyiococci, Streptococci, Corynebacteriae, Mycobacteriae, Proteus, Propionibacterium, Pseudomonas, Neisseriae, E. coli) and fungal strains (Candida and Aspergillus). […] In addition, the studies of post-antibiotic effects point towards a strong bactericidal effect of the compounds of the invention. […] Minimum Inhibitory Concentrations were estimated using an agar cup assay. Bacterial strains were obtained from the American Type Culture Collection or from our own collection of clinical isolates. Colonies from fresh overnight culture were resuspended in saline water to 0.5 MacFarland corresponding to 10^8 CFU/ml. 200 ml Mueller Hinton agar (Oxoid) at 48° C. was inoculated at a concentration of 10^6 CFU/ml and poured into square petri dishes (245×245 mm). Holes were made in the inoculated plates and 200 μl of the compounds to be tested were disposed into each hole. A dilution series of compounds contained six dilution between 0.25 and 125 μg/ml. For Streptococci Mueller Hinton agar was supplemented with 5% sheep blood. Plates were appropriately incubated and zone diameters of growth inhibition were measured using an electronic caliper. MICs were estimated using a linear regression curve between the zone diameter of growth inhibition and the log2 of the sample concentration. The microbiological assay set up is in agreement with the European Pharmacopoeia 3rd edition (1997). The inhibition zones are function of the concentration of the compounds used. Known antibiotics including fusidic acid (FA), mupirocin and linezolid were used as reference compounds.

[2] = test system: S. aureus CJ234F; conditions: Staphylococcus aureus; S. aureus CJ234F (MRSA, Fus. resistant)
From the text: as §1

[3] = test system: S. aureus CJ234R; conditions: Staphylococcus aureus; S. aureus CJ234R (MRSA, Rifampicin resistant)
From the text: as §1

[4] = test system: S. aureus CJ247; conditions: Staphylococcus aureus
From the text: as §1

[5] = test system: S. epidermis CK5; conditions: Staphylococcus epidermidis
From the text: as §1

[6] = test system: Streptococcus pyogenes EC88; conditions: agar with 5% sheep blood
From the text: as §1

[7] = test system: Corynebacterium xerosis FF
From the text: as §1

[8] = test system: S. aureus N6; conditions: Staphylococcus aureus; S. aureus N6 (Fus. resistant)
From the text: as §1

[9] = test system: Asbergillus niger ZM35; conditions: Aspergillus niger
From the text: as §1

[10] = test system: Candida albicans ZA
From the text: as §1

[11] = test system: E. coli HA165; conditions: Escherichia coli
From the text: as §1

[12] = test system: Propionibacterium acnes FN33; conditions: Cutibacterium acnes
From the text: as §1

[13] = test system: Pseudomonas aeruginosa BA17
From the text: as §1

[14] = test system: Saccaromyces cervisiae ZZ7; conditions: Saccharomyces cerevisiae
From the text: as §1

[15] = test system: Streptococcus faecium EI19; conditions: Enterococcus faecium; Streptococcus faecium EI19 (Penicillin resistant); agar with 5% sheep blood
From the text: as §1

| Structure (SMILES) | MIC [1] | MIC [2] | MIC [3] | MIC [4] | MIC [5] | MIC [6] | MIC [7] | MIC [8] | MIC [9] | MIC [10] | MIC [11] | MIC [12] | MIC [13] | MIC [14] | MIC [15] |
| --- | --- | --- | --- | --- | --- | --- | --- | --- | --- | --- | --- | --- | --- | --- | --- |
| C/C(=C\C(=O)OCCCCCCCCC(=O)O)C[C@@H]1OC[C@H](C[C@@H]2O[C@H]2[C@@H](C)[C@H](C)O)[C@@H](O)[C@H]1O [Mupirocin, mupirocin, reference compound] | 1 µg/mL (≈ 2 µM) | 0.5 µg/mL (≈ 0.999 µM) | 1 µg/mL (≈ 2 µM) | 0.5 µg/mL (≈ 0.999 µM) | 0.04 µg/mL (≈ 0.0799 µM) | 1 µg/mL (≈ 2 µM) |  |  |  |  |  |  |  |  |  |
| CC(C)CCCC(C(=O)NCCN(CCN)CCN)[C@H]1CC[C@@]2(C)C1CCC1[C@@]3(C)CC[C@@H](O)[C@@H](C)C3CC[C@@]12C (some centres unmarked) [Compound 112, 21-N-{2′-[bis(2′-aminoethyl)amino]ethyl}-11-desoxy-16-desacetoxy-17S,20,24,25-tetrahydrofusid-21-amide] | 1 µg/mL (≈ 1.74 µM) | 1 µg/mL (≈ 1.74 µM) | 1 µg/mL (≈ 1.74 µM) | 1 µg/mL (≈ 1.74 µM) | 1 µg/mL (≈ 1.74 µM) |  | 0.25 µg/mL (≈ 0.435 µM) | 1 µg/mL (≈ 1.74 µM) |  |  |  |  |  |  |  |
| CC(C)CCCC(C(=O)NCCCN(CCCN)CCCN)[C@H]1CC[C@@]2(C)C1CCC1[C@@]3(C)CC[C@@H](O)[C@@H](C)C3CC[C@@]12C (some centres unmarked) [Compound 117, 21-N-{3′-[bis(3′-aminopropyl)amino]propyl}-1-11-desoxy-16-desacetoxy-17S,20,24,25-tetrahydrofusid-21-amide] | 1 µg/mL (≈ 1.62 µM) | 1 µg/mL (≈ 1.62 µM) | 1 µg/mL (≈ 1.62 µM) | 1 µg/mL (≈ 1.62 µM) | 1 µg/mL (≈ 1.62 µM) |  | 0.25 µg/mL (≈ 0.405 µM) | 1 µg/mL (≈ 1.62 µM) |  |  |  |  |  |  |  |
| CC(=O)O[C@H]1C[C@@]2(C)C(C[C@@H](O)C3[C@@]4(C)CC[C@@H](OC(C)=O)[C@@H](C)C4CC[C@@]32C)[C@@H]1[C@H](CCCC(C)C)C(=O)NCCCN(CCCN)CCCN (some centres unmarked) [Compound 115] | 4 µg/mL (≈ 5.46 µM) |  | 4 µg/mL (≈ 5.46 µM) |  | 4 µg/mL (≈ 5.46 µM) | 4 µg/mL (≈ 5.46 µM) | 64 µg/mL (≈ 87.3 µM) |  | 125 µg/mL (≈ 171 µM) | 16 µg/mL (≈ 21.8 µM) | 16 µg/mL (≈ 21.8 µM) | 4 µg/mL (≈ 5.46 µM) | 16 µg/mL (≈ 21.8 µM) | 16 µg/mL (≈ 21.8 µM) |  |
| CC(=O)O[C@H]1C[C@@]2(C)C(CCC3[C@@]4(C)CC[C@@H](OS(=O)(=O)O)[C@@H](C)C4CC[C@@]32C)[C@@H]1[C@H](CCCC(C)C)C(=O)NCCN(CCN)CCN (some centres unmarked) [Compound 111, 21-N-{2′-[bis(2′-aminoethyl)amino]ethyl}-3-OSO3-11-desoxy-17,20,24,25-tetrahydro-fusid-21-amide] | 16 µg/mL (≈ 22.4 µM) | 16 µg/mL (≈ 22.4 µM) | 16 µg/mL (≈ 22.4 µM) |  | 4 µg/mL (≈ 5.61 µM) | 16 µg/mL (≈ 22.4 µM) | 16 µg/mL (≈ 22.4 µM) |  | 64 µg/mL (≈ 89.8 µM) | 125 µg/mL (≈ 175 µM) | 16 µg/mL (≈ 22.4 µM) | 4 µg/mL (≈ 5.61 µM) | > 125 µg/mL | 64 µg/mL (≈ 89.8 µM) |  |
| CC(=O)NC[C@H]1CN(c2ccc(N3CCOCC3)c(F)c2)C(=O)O1 [Linezolid, linezolid, reference compound] | 4 µg/mL (≈ 11.9 µM) | 1 µg/mL (≈ 2.96 µM) | 16 µg/mL (≈ 47.4 µM) | 1 µg/mL (≈ 2.96 µM) | 0.25 µg/mL (≈ 0.741 µM) | 4 µg/mL (≈ 11.9 µM) |  |  |  |  |  | 1 µg/mL (≈ 2.96 µM) |  |  |  |
| C[C@H](CCC(=O)NCCN(CCN)CCN)[C@H]1CC[C@H]2[C@@H]3CC[C@@H]4C[C@H](O)CC[C@]4(C)[C@H]3[C@H](O)C[C@]12C [Compound 107] | 16 µg/mL (≈ 30.7 µM) | 16 µg/mL (≈ 30.7 µM) | 16 µg/mL (≈ 30.7 µM) | 16 µg/mL (≈ 30.7 µM) | 16 µg/mL (≈ 30.7 µM) | 16 µg/mL (≈ 30.7 µM) | 16 µg/mL (≈ 30.7 µM) | 16 µg/mL (≈ 30.7 µM) | 16 µg/mL (≈ 30.7 µM) | 16 µg/mL (≈ 30.7 µM) | 16 µg/mL (≈ 30.7 µM) | 16 µg/mL (≈ 30.7 µM) | 16 µg/mL (≈ 30.7 µM) | 4 µg/mL (≈ 7.68 µM) | 16 µg/mL (≈ 30.7 µM) |
